Experiments:
Experiment in all cases: relative viability (nuclei count vs DMSO), 5 days (fraction); higher = more cells survive
[1] = compound: C1/C(=C\C2=CC=CS2)/C(=O)/C(=C/C3=CC=CS3)/C1 + COc1cccc2cc(-c3nc([C@H]4CC[C@H](C(=O)O)CC4)n4ncnc(N)c34)[nH]c12 [OSI-027] (partner 0.5 µM)
Procedure, shortened: (§1)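 A single step with final 0.05% Triton X-100, 1% formaldehyde and 1 ug/ml Hoechst fixed the cells and stained nuclei 5 days after treatment. Lung cancer cell lines in 1536-well plates had been treated by pin tool the day after seeding with one drug alone or a fixed anchor-drug dose plus five library-drug doses (not always all listed) in √10 steps, and nuclei were counted on 4× images. Relative viability is the ratio of nuclei in treated wells to nuclei in vehicle wells, taken as the median of duplicate plates.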

[2] = compound: C1/C(=C\C2=CC=CS2)/C(=O)/C(=C/C3=CC=CS3)/C1 + Nc1ncn([C@H]2C[C@H](O)[C@@H](CO)O2)c(=O)n1 [Decitabine] (partner 2 µM)
Procedure, shortened: as §1

TPCA-1 + Decitabine = compound: C1=CC(=CC=C1C2=CC(=C(S2)NC(=O)N)C(=O)N)F [TPCA-1] + Nc1ncn([C@H]2C[C@H](O)[C@@H](CO)O2)c(=O)n1 [Decitabine] (partner 2 µM)
Procedure, shortened: as §1

Lestaurtinib + Foretinib = compound: C[C@]12O[C@H](C[C@]1(O)CO)n1c3ccccc3c3c4c(c5c6ccccc6n2c5c31)CNC4=O [Lestaurtinib] + COc1cc2c(Oc3ccc(NC(=O)C4(C(=O)Nc5ccc(F)cc5)CC4)cc3F)ccnc2cc1OCCCN1CCOCC1 [Foretinib] (partner 0.25 µM)
Procedure, shortened: as §1

Row | Cell Line | relative viability ([1]; first compound 0.2 µM) | relative viability ([1]; first compound 0.6325 µM) | relative viability ([1]; first compound 2 µM) | relative viability ([1]; first compound 6.325 µM) | relative viability ([1]; first compound 20 µM) | relative viability ([2]; first compound 0.2 µM) | relative viability ([2]; first compound 0.6325 µM) | relative viability ([2]; first compound 2 µM) | relative viability ([2]; first compound 6.325 µM) | relative viability ([2]; first compound 20 µM) | relative viability (TPCA-1 + Decitabine; first compound 0.04 µM) | relative viability (TPCA-1 + Decitabine; first compound 0.1265 µM) | relative viability (TPCA-1 + Decitabine; first compound 0.4 µM) | relative viability (TPCA-1 + Decitabine; first compound 1.265 µM) | relative viability (TPCA-1 + Decitabine; first compound 4 µM) | relative viability (Lestaurtinib + Foretinib; first compound 0.005 µM) | relative viability (Lestaurtinib + Foretinib; first compound 0.01581 µM) | relative viability (Lestaurtinib + Foretinib; first compound 0.05 µM) | relative viability (Lestaurtinib + Foretinib; first compound 0.1581 µM) | relative viability (Lestaurtinib + Foretinib; first compound 0.5 µM)
1 | NCI-H1666 | 0.874 | 0.863 | 0.83 | 0.732 | 0.964 | 0.697 | 0.732 | 0.751 | 0.636 | 0.736 | 0.711 | 0.607 | 0.743 | 0.695 | 0.707 | 1.1 | 1.07 | 1.6 | 1.02 | 0.595
2 | NCI-H1734 | 0.584 | 0.668 | 0.741 | 0.519 | 0.593 | 0.582 | 0.427 | 0.523 | 0.403 | 0.486 | 0.58 | 0.468 | 0.531 | 0.517 | 0.454 | 0.891 | 0.951 | 0.705 | 0.383 | 0.179
3 | NCI-H1755 | 0.787 | 0.709 | 0.79 | 0.683 | 0.759 | 0.74 | 0.706 | 0.743 | 0.676 | 0.706 | 0.649 | 0.709 | 0.709 | 0.688 | 0.67 | 0.891 | 0.938 | 0.788 | 0.494 | 0.412
4 | NCI-H1793 | 0.333 | 0.303 | 0.322 | 0.202 | 0.31 | 0.526 | 0.554 | 0.614 | 0.305 | 0.469 | 0.495 | 0.429 | 0.492 | 0.451 | 0.384 | 0.684 | 0.702 | 0.436 | 0.574 | 0.39
5 | NCI-H1915 | 0.636 | 0.632 | 0.657 | 0.249 | 0.681 | 0.261 | 0.279 | 0.246 | 0.232 | 0.268 | 0.266 | 0.253 | 0.258 | 0.255 | 0.251 | 1.14 | 1.21 | 0.869 | 0.762 | 0.287
6 | NCI-H1944 | 0.464 | 0.409 | 0.464 | 0.408 | 0.425 | 0.423 | 0.427 | 0.439 | – | 0.392 | 0.526 | 0.446 | 0.477 | 0.475 | 0.383 | 0.909 | 0.848 | 0.698 | 0.652 | 0.366
7 | NCI-H1975 | 0.944 | 0.689 | – | 0.661 | 0.739 | 0.404 | 0.356 | 0.324 | 0.365 | 0.385 | 0.393 | 0.343 | 0.403 | 0.387 | 0.188 | 1.09 | 0.99 | 0.927 | 0.731 | 0.538
8 | NCI-H1993 | 0.627 | 0.54 | 0.585 | 0.447 | 0.523 | 0.557 | 0.558 | 0.675 | 0.499 | 0.432 | 0.604 | 0.541 | 0.541 | 0.584 | 0.508 | 0.791 | 0.771 | 0.77 | 0.63 | 0.535
9 | NCI-H2009 | 0.622 | 0.755 | 0.707 | 0.557 | 0.607 | 0.356 | 0.381 | 0.359 | – | 0.347 | 0.412 | 0.392 | 0.377 | 0.423 | 0.392 | 1.24 | 1.3 | 1.17 | 1.09 | 0.751
10 | NCI-H2023 | 0.394 | 0.469 | 0.425 | 0.304 | 0.364 | 0.247 | 0.234 | 0.228 | 0.21 | 0.236 | 0.256 | 0.195 | 0.228 | 0.227 | 0.182 | 1.02 | 0.758 | 0.843 | 1.01 | 0.164
11 | NCI-H2085 | 0.884 | 1.04 | 0.754 | 0.685 | 0.678 | 0.56 | 0.544 | 0.597 | 0.498 | 0.508 | – | 0.531 | 0.618 | 0.579 | 0.665 | 1.01 | 0.885 | 0.801 | 1.05 | 0.826
12 | NCI-H2087 | 0.716 | 0.688 | 0.769 | 0.457 | 0.42 | 0.251 | 0.286 | 0.36 | 0.305 | 0.224 | 0.255 | 0.222 | 0.311 | 0.335 | 0.152 | 1.13 | 1.31 | 0.848 | 0.703 | 0.266
13 | NCI-H2126 | 0.74 | 0.645 | 0.711 | 0.598 | 0.774 | 0.564 | 0.624 | 0.547 | 0.582 | 0.587 | 0.582 | 0.577 | 0.632 | 0.614 | 0.514 | 1.19 | 1.31 | 1.1 | 1.1 | 0.926
14 | NCI-H2170 | 0.713 | 0.728 | 0.77 | 0.416 | 0.785 | 0.439 | 0.436 | 0.466 | 0.466 | 0.479 | 0.493 | 0.433 | 0.444 | 0.453 | 0.385 | 0.969 | 1.02 | 0.907 | 0.962 | 0.358
15 | NCI-H2342 | 0.626 | 0.644 | 0.741 | 0.52 | 0.607 | 0.819 | 0.73 | 0.713 | 0.752 | 0.653 | 0.71 | 0.653 | 0.766 | 0.712 | 0.883 | 1.17 | 1.06 | 1.08 | 1.08 | 0.922
16 | NCI-H2347 | 0.482 | 0.391 | 0.429 | – | 0.389 | 0.689 | 0.581 | 0.628 | 0.57 | 0.633 | 0.578 | 0.551 | 0.664 | 0.641 | 0.619 | 1.18 | 1.38 | 0.865 | 0.98 | 0.598
